≈ marks a conversion by molar mass, not a printed value. Calls of active or inactive are those of the source. No cut-off for these calls is given here.
Experiments:
[1] = system: Saccharomyces cerevisiae; assay: Antifungal activity against Saccharomyces cerevisiae ATCC 9763 assessed as reduction in microbial growth; format: functional
[2] = Ratio of MFC for fungicidal activity against Saccharomyces cerevisiae ATCC 9763 to MIC for antifungal activity against Saccharomyces cerevisiae ATCC 9763; format: functional
[3] = system: Candida albicans; assay: Antifungal activity against Candida albicans ATCC 10231 assessed as reduction in microbial growth; format: functional
[4] = system: Candida parapsilosis; assay: Antifungal activity against Candida parapsilosis ATCC 22019 assessed as reduction in microbial growth; format: functional; details: Lodderomyces parapsilosis
[5] = system: Pichia kudriavzevii; assay: Antifungal activity against Candida krusei ATCC 6258 assessed as reduction in microbial growth; format: functional
[6] = system: Saccharomyces cerevisiae; assay: Fungicidal activity against Saccharomyces cerevisiae ATCC 9763; format: functional
[7] = system: Nakaseomyces glabratus; assay: Antifungal activity against Candida glabrata ATCC 90030 assessed as reduction in microbial growth; format: functional
[8] = system: Candida albicans; assay: Antifungal activity against fluconazole-sensitive Candida albicans F2 assessed as reduction in microbial growth; format: functional
[9] = system: Candida albicans; assay: Antifungal activity against fluconazole-resistant Candida albicans Gu5 assessed as reduction in microbial growth; format: functional
[10] = system: Candida albicans; assay: Antifungal activity against fluconazole-sensitive Candida albicans Gu4 assessed as reduction in microbial growth; format: functional
[11] = system: Candida parapsilosis; assay: Fungicidal activity against Candida parapsilosis DSM 5784; format: functional; details: Lodderomyces parapsilosis
[12] = system: Candida albicans; assay: Antibiofilm activity against Candida albicans ATCC 10231 at concentration of 0.25 MIC by XTT assay; format: functional, organism-based
[13] = system: Nakaseomyces glabratus; assay: Fungicidal activity against Candida glabrata DSM 11226; format: functional
[14] = system: Pichia kudriavzevii; assay: Fungicidal activity against Candida krusei DSM 6128; format: functional
[15] = system: Candida albicans; assay: Fungicidal activity against Candida albicans ATCC 10231; format: functional
[16] = system: Candida albicans; assay: Antifungal activity against fluconazole-resistant Candida albicans F5 assessed as reduction in microbial growth; format: functional
[17] = system: Candida albicans; assay: Antifungal activity against fluconazole-resistant Candida albicans B4 assessed as reduction in microbial growth; format: functional
[18] = system: Candida albicans; assay: Antifungal activity against fluconazole-sensitive Candida albicans B3 assessed as reduction in microbial growth; format: functional
[19] = system: Saccharomyces cerevisiae; assay: Inhibition of Saccharomyces cerevisiae DNA topoisomerase 2 assessed as decrease in relaxation of supercoiled DNA using supercoiled pBR322 plasmid DNA at 1 to 200 uM gel electrophoresis method; details: dose 1-200 µM
[20] = system: Saccharomyces cerevisiae; assay: Inhibition of Saccharomyces cerevisiae DNA topoisomerase 2 assessed as decrease in relaxation of supercoiled DNA using supercoiled pBR322 plasmid DNA at 100 to 150 uM gel electrophoresis method; details: dose 100-150 µM
[21] = system: Candida albicans; assay: Growth inhibition of Candida albicans ATCC 10231 assessed as reduction in yeast to mycelium formation by measuring reduction in hyphal growth at concentration of 0.25 MIC after 3 hrs in YPG medium by light microscopic method relative to control; format: functional, organism-based
[22] = system: Candida albicans; assay: Growth inhibition of Candida albicans ATCC 10231 assessed as reduction in yeast to mycelium formation by measuring reduction in hyphal growth at concentration of 0.25 MIC after 3 hrs in G1cNAc medium by light microscopic method relative to control; format: functional, organism-based
[23] = system: Candida albicans; assay: Growth inhibition of Candida albicans ATCC 10231 assessed as reduction in yeast to mycelium formation by measuring reduction in hyphal growth at 0.25 MIC after 3 hrs by light microscopic method relative to control; format: functional

Row | Compound | MIC90 [1] | Ratio [2] | MIC90 [3] | MIC90 [4] | MIC90 [5] | MFC [6] | MIC90 [7] | MIC90 [8] | MIC90 [9] | MIC90 [10] | MIC90 [16] | MIC90 [17] | MIC90 [18] | further results
1 | Cc1ccc([N+](=O)[O-])c2c(NCCCN(C)CCCNc3c4ccccc4nc4c(C)ccc([N+](=O)[O-])c34)c3ccccc3nc12 | 8 µg/mL | >=1 | > 16 µg/mL | > 16 µg/mL | > 16 µg/mL | 8 µg/mL (≈ 13 µM) | > 16 µg/mL |  |  |  |  |  |  | 
2 | NCCCC[C@H](N)C(=O)OCCNc1c2ccccc2nc2cccc([N+](=O)[O-])c12 | 0.5 µg/mL | >=1 | 4 µg/mL | 32 µg/mL | 16 µg/mL | 1 µg/mL (≈ 2.43 µM) | 16 µg/mL | 4 µg/mL | > 64 µg/mL | 4 µg/mL | > 64 µg/mL | > 64 µg/mL | 4 µg/mL | MFC [11]: 128 µg/mL (≈ 311 µM); Activity [12]: Active; MFC [13]: 64 µg/mL (≈ 156 µM); MFC [14]: 64 µg/mL (≈ 156 µM); MFC [15]: 16 µg/mL (≈ 38.9 µM); inhibition [19]: inactive
3 | COc1cc(NS(C)(=O)=O)ccc1Nc1c2ccccc2nc2ccccc12 |  |  |  |  |  |  |  |  |  |  |  |  |  | inhibition [20]: Active
4 | O=[N+]([O-])c1cccc2nc3ccccc3c(NCCNCCNCCNc3c4ccccc4nc4cccc([N+](=O)[O-])c34)c12 | 8 µg/mL | >=1 | 64 µg/mL | 32 µg/mL | 32 µg/mL | 16 µg/mL (≈ 27.1 µM) | 32 µg/mL | > 64 µg/mL | > 64 µg/mL | > 64 µg/mL | > 64 µg/mL | > 64 µg/mL | > 64 µg/mL | Activity [12]: Active; MFC [13]: 32 µg/mL (≈ 54.2 µM); growth inhibition (GI) [21]: Active; MFC [14]: 32 µg/mL (≈ 54.2 µM); growth inhibition (GI) [22]: inactive; inhibition [20]: Active; growth inhibition (GI) [23]: 100%
5 | O=C(CCCCC(=O)OCCNc1c2ccccc2nc2cccc([N+](=O)[O-])c12)OCCNc1c2ccccc2nc2cccc([N+](=O)[O-])c12 | > 16 µg/mL |  | > 16 µg/mL | > 16 µg/mL | > 16 µg/mL |  | > 16 µg/mL |  |  |  |  |  |  | 
6 | CN(CCCNc1c2ccccc2nc2cccc([N+](=O)[O-])c12)CCCNc1c2ccccc2nc2cccc([N+](=O)[O-])c12 | 4 µg/mL | >=1 | > 16 µg/mL | > 16 µg/mL | > 16 µg/mL | 4 µg/mL (≈ 6.78 µM) | > 16 µg/mL |  |  |  |  |  |  | 
7 | Cc1ccc([N+](=O)[O-])c2c(NCCOC(=O)CCCCC(=O)OCCNc3c4ccccc4nc4c(C)ccc([N+](=O)[O-])c34)c3ccccc3nc12 | > 32 µg/mL |  | > 32 µg/mL | > 32 µg/mL | > 32 µg/mL |  | > 32 µg/mL |  |  |  |  |  |  | 
8 | OC(Cn1cncn1)(Cn1cncn1)c1ccc(F)cc1F [FLUCONAZOLE] |  |  | 8 µg/mL |  |  |  |  | 8 µg/mL | > 64 µg/mL | 4 µg/mL | > 64 µg/mL | 16 µg/mL | 1 µg/mL | 
9 | Cc1ccc([N+](=O)[O-])c2c(NCCCNC(=O)[C@@H](N)CCCCN)c3ccccc3nc12 | 32 µg/mL | >=1 | 32 µg/mL | > 64 µg/mL | 64 µg/mL | 32 µg/mL (≈ 73 µM) | > 64 µg/mL | > 64 µg/mL | > 64 µg/mL | > 64 µg/mL | > 64 µg/mL | > 64 µg/mL | > 64 µg/mL | growth inhibition (GI) [22]: inactive; inhibition [19]: Active; growth inhibition (GI) [23]: 100%
10 | Cc1ccc(N)c2c(NCCO)c3ccccc3nc12 | 64 µg/mL |  | > 64 µg/mL | 64 µg/mL | 64 µg/mL |  | 64 µg/mL |  |  |  |  |  |  | 
11 | Nc1cccc2nc3ccccc3c(NCCO)c12 | > 64 µg/mL |  | > 64 µg/mL | > 64 µg/mL | > 64 µg/mL |  | > 64 µg/mL |  |  |  |  |  |  | 
12 | Cc1ccc([N+](=O)[O-])c2c(NCCOC(=O)[C@@H](N)CCCCN)c3ccccc3nc12 | 1 µg/mL | >=1 | 4 µg/mL | 64 µg/mL | 16 µg/mL | 2 µg/mL (≈ 4.7 µM) | 32 µg/mL | 8 µg/mL | > 64 µg/mL | 8 µg/mL | > 64 µg/mL | > 64 µg/mL | 16 µg/mL | Activity [12]: inactive; MFC [13]: 64 µg/mL (≈ 150 µM); MFC [14]: 32 µg/mL (≈ 75.2 µM); MFC [15]: 16 µg/mL (≈ 37.6 µM); inhibition [19]: inactive
13 | Cc1ccc([N+](=O)[O-])c2c(NCCNCCNCCNc3c4ccccc4nc4c(C)ccc([N+](=O)[O-])c34)c3ccccc3nc12 | 32 µg/mL |  | > 32 µg/mL | > 32 µg/mL | > 32 µg/mL |  | > 32 µg/mL |  |  |  |  |  |  | 
14 | NCCCC[C@H](N)C(=O)NCCCNc1c2ccccc2nc2cccc([N+](=O)[O-])c12 | 16 µg/mL | >=1 | 8 µg/mL | 32 µg/mL | 64 µg/mL | 16 µg/mL (≈ 37.7 µM) | 32 µg/mL | 64 µg/mL | 32 µg/mL | 32 µg/mL | 64 µg/mL | 16 µg/mL | 16 µg/mL | MFC [11]: > 128 µg/mL; Activity [12]: Active; MFC [13]: > 128 µg/mL; growth inhibition (GI) [21]: Active; growth inhibition (GI) [22]: Active; MFC [15]: 16 µg/mL (≈ 37.7 µM); inhibition [19]: Active; inhibition [20]: Active; growth inhibition (GI) [23]: Active

Source: ChEMBL document CHEMBL4715897, “A new 1-nitro-9-aminoacridine derivative targeting yeast topoisomerase II able to overcome fluconazole-resistance” (2021)
